Data set [1] has as its system xenograft nude mice model. Also noted: method as in PMID 31058081. As to conditions: in vivo; cited from earlier work.
Data set [2] deals with Hela nucleus extract containing a mixture of HDAC isoforms. Briefly: HDAC enzyme inhibitory assay with Hela nucleus extract. Type of data set: biochemical. As to conditions: 1 µM, mean of three experiments. On the procedure: The HDAC enzyme inhibitory activities of synthesised compounds were investigated by utilising Hela nucleus extract containing a mixture of HDAC isoforms. Percentage inhibitory rate was used to determine the activity of tested compounds (Tables 1 and 2). The Fa series compounds were firstly synthesised for the activity screening. […] To investigate whether aromatic linker could improve the inhibitory activities, structural modifications were performed on current molecules.

A further data set concerns U937 cells. As to the kind of experiment: MTT antiproliferative assay, U937 cells. As to conditions: Homo sapiens; for inhibition at 1 µM: U-937, read-out: U937 percentage inhibitory rate, 1 µM, U937 cells, MTT, mean of three experiments; for IC50: U-937, 48 h, read-out: U937 antiproliferative IC50.
In data set [3] the test system is MCF-7 cells. Briefly: MTT antiproliferative assay, MCF-7 cells. As to conditions: Homo sapiens, MCF7, 48 h, read-out: MCF-7 antiproliferative IC50.
Another data set deals with U266 cells. Briefly: MTT antiproliferative assay, U266 cells. As to conditions: Homo sapiens, U-266, 48 h, read-out: U266 antiproliferative IC50.
For another data set, the system named is K562 cells. Briefly: MTT antiproliferative assay, K562 cells. The note with it: Homo sapiens, K562, 48 h, read-out: K562 antiproliferative IC50.
A further data set concerns HEPG2 cells. Briefly: MTT antiproliferative assay, HEPG2 cells. The note with it: Homo sapiens, HepG2, 48 h, read-out: HEPG2 antiproliferative IC50.
The subject of data set [4] is MCF-7 cells. As to the kind of experiment: Cell cycle assay (PI, flow cytometry). As to conditions: 24 h.
Method: After staining, the cell cycle distribution was determined by flow cytometry within 24 h.
The subject of data set [5] is MCF-7 cells. Briefly: Cell apoptosis assay (Annexin V-FITC/PI, flow cytometry). As to conditions: 24 h, control 9.16%.
Method: After incubating for 15 min, add 10 µL of PI to each sample and mix gently, and incubate for 5 min at 2–8 °C under dark conditions, and detect with a flow cytometer.

SMILES strings stand for the structures.

For `ClC(Cl)(Cl)c1nc2cc3c(cc2c2cc4c(cc12)OCO4)OCO3` [Compound 8a], in data set [1], the hepatotoxicity entry is reported as “obvious hepatotoxicity”.
`O=C(CCCNC(=O)c1ccc(-c2cc3c(cc2NC(=O)c2cc(F)ccc2F)OCO3)cc1)NO` [Fa-22, 4-{4-[6–(2,5-Difluoro-benzoylamino)-benzo[1,3]dioxol-5-yl]-benzoylamino}-N-Hydroxy-butyramide]: in [2], the “HDACs percentage inhibitory rate” value is recorded as 24.89 ± 4.89%. In addition, the inhibition at 1 µM with U937 cells was 4.73 ± 0.64%.
Consider `O=C(CCCNC(=O)c1ccc(-c2cc3c(cc2NC(=O)c2ccc(F)c(C(F)(F)F)c2)OCO3)cc1)NO` [Fa-23, 4-{4-[6–(4-Fluoro-3-trifluoromethyl-benzoylamino)-benzo[1,3]dioxol-5-yl]-benzoylamino}-N-Hydroxy-butyramide], for which, in data set [2], the “HDACs percentage inhibitory rate” value worked out at 20.29 ± 0.29%. Besides, the inhibition at 1 µM in the data set with U937 cells was 17.4 ± 3.35%.
In the case of `O=C(NO)c1ccc(CNC(=O)c2ccc(-c3cc4c(cc3NC(=O)c3ccccc3)OCO4)cc2)cc1` [Fb-1, 4-{[4–(6-Benzoylamino-benzo[1,3]dioxol-5-yl)-benzoylamino]-methyl}-N-Hydroxy-benzamide], in data set [2], the “HDACs percentage inhibitory rate” value is given as 57.50 ± 2.92%. In addition, the inhibition at 1 µM in the data set on U937 cells is 65.2 ± 0.29%.
On to `COc1ccc(C(=O)Nc2cc3c(cc2-c2ccc(C(=O)NCc4ccc(C(=O)NO)cc4)cc2)OCO3)cc1` [Fb-2, 4-({4-[6–(4-Methoxy-benzoylamino)-benzo[1,3]dioxol-5-yl]-benzoylamino}-methyl)-N-Hydroxy-benzamide], for which the “HDACs percentage inhibitory rate” value in [2] was 52.30 ± 2.26%. Besides, the IC50 in the data set with U937 cells is 920 ± 90 nM; with MCF-7 cells [3], 940 ± 20 nM; with U266 cells, 90 ± 10 nM; in the data set with K562 cells, 1190 ± 60 nM; in the data set on HEPG2 cells, 17900 ± 1040 nM. For the same compound, in the data set with U937 cells, the inhibition at 1 µM was 94.46 ± 0.41%.
On to `CCc1ccc(C(=O)Nc2cc3c(cc2-c2ccc(C(=O)NCc4ccc(C(=O)NO)cc4)cc2)OCO3)cc1` [Fb-3, 4-({4-[6–(4-Ethyl-benzoylamino)-benzo[1,3]dioxol-5-yl]-benzoylamino}-methyl)-N-Hydroxy-benzamide], for which the “HDACs percentage inhibitory rate” value in [2] was 53.90 ± 1.82%. Besides, the IC50 came out at 630 ± 20 nM in the data set on U937 cells; 530 ± 90 nM in the data set on MCF-7 cells [3]; 100 ± 20 nM in the data set on U266 cells; 470 ± 30 nM with K562 cells; 14900 ± 780 nM with HEPG2 cells. For the same compound, in the data set on U937 cells, the inhibition at 1 µM was 96.05 ± 0.01%.
As to `O=C(NO)c1ccc(CNC(=O)c2ccc(-c3cc4c(cc3NC(=O)c3cccc(F)c3)OCO4)cc2)cc1` [Fb-6, 4-({4-[6–(3-Fluoro-benzoylamino)-benzo[1,3]dioxol-5-yl]-benzoylamino}-methyl)-N-Hydroxy-benzamide], in data set [2], the “HDACs percentage inhibitory rate” value is recorded as 58.36 ± 5.06%. For the same compound, in the data set on U937 cells, the inhibition at 1 µM was found to be 92.2 ± 2.72%.
In the same order, the values of `O=C(NO)c1ccc(CNC(=O)c2ccc(-c3cc4c(cc3NC(=O)c3ccc(C(F)(F)F)cc3)OCO4)cc2)cc1` [Fb-7, 4-({4-[6–(4-Trifluoromethyl-benzoylamino)-benzo[1,3]dioxol-5-yl]-benzoylamino}-methyl)-N-Hydroxy-benzamide] are 47.03 ± 15.05% and 84.9 ± 1.68%.
In the same order, the values of `O=C(NO)c1ccc(CNC(=O)c2ccc(-c3cc4c(cc3NC(=O)c3cccc(C(F)(F)F)c3)OCO4)cc2)cc1` [Fb-8, 4-({4-[6–(3-Trifluoromethyl-benzoylamino)-benzo[1,3]dioxol-5-yl]-benzoylamino}-methyl)-N-Hydroxy-benzamide] are 47.09 ± 0.62% and 78.2 ± 3.05%.
Consider `Cc1ccccc1C(=O)Nc1cc2c(cc1-c1ccc(C(=O)NCc3ccc(C(=O)NO)cc3)cc1)OCO2` [Fb-9, 4-({4-[6–(2-Methyl-benzoylamino)-benzo[1,3]dioxol-5-yl]-benzoylamino}-methyl)-N-Hydroxy-benzamide], for which the “HDACs percentage inhibitory rate” value in data set [2] turned out to be 35.97 ± 3.07%. Also, the inhibition at 1 µM in the data set on U937 cells came out at 69.2 ± 3.08%.
`O=C(NO)c1ccc(CNC(=O)c2ccc(-c3cc4c(cc3NC(=O)c3cccc(Br)c3)OCO4)cc2)cc1` [Fb-10, 4-({4-[6–(3-Bromo-benzoylamino)-benzo[1,3]dioxol-5-yl]-benzoylamino}-methyl)-N-Hydroxy-benzamide]: the “HDACs percentage inhibitory rate” value in data set [2] worked out at 49.47 ± 9.25%. The inhibition at 1 µM with U937 cells was 86.2 ± 4.18%.
For `O=C(NO)c1ccc(CNC(=O)c2ccc(-c3cc4c(cc3NC(=O)c3ccc(F)cc3)OCO4)cc2)cc1` [Fb-11, 4-({4-[6–(4-Fluoro-benzoylamino)-benzo[1,3]dioxol-5-yl]-benzoylamino}-methyl)-N-Hydroxy-benzamide], the “HDACs percentage inhibitory rate” value in [2] came to 48.27 ± 0.62%. In the data set on U937 cells, the inhibition at 1 µM was determined as 59.2 ± 6.95%.
For `O=C(NO)c1ccc(CNC(=O)c2ccc(-c3cc4c(cc3NC(=O)c3ccccc3Cl)OCO4)cc2)cc1` [Fb-12, 4-({4-[6–(2-Chloro-benzoylamino)-benzo[1,3]dioxol-5-yl]-benzoylamino}-methyl)-N-Hydroxy-benzamide], the “HDACs percentage inhibitory rate” value in data set [2] is on record as 59.61 ± 6.64%. Besides, the inhibition at 1 µM in the data set with U937 cells worked out at 76.6 ± 6.97%.
The like results for `CC(C)(C)OC(=O)Nc1cc2c(cc1-c1ccc(C(=O)NCc3ccc(C(=O)NO)cc3)cc1)OCO2` [Fb-13, 4-{[4–(6-Tert-Butoxycarbonylamino-benzo[1,3]dioxol-5-yl)-benzoylamino]-methyl}-N-Hydroxy-benzamide] were, in that order, 48.09 ± 3.01% and 75.5 ± 2.4%.
With `Nc1cc2c(cc1-c1ccc(C(=O)NCc3ccc(C(=O)NO)cc3)cc1)OCO2` [Fb-14, 4-{[4–(6-Amino-benzo[1,3]dioxol-5-yl)-benzoylamino]-methyl}-N-Hydroxy-benzamide], the “HDACs percentage inhibitory rate” value in data set [2] worked out at 58.84 ± 2.40%. Besides, the inhibition at 1 µM with U937 cells was determined as 75.6 ± 2.28%.
Regarding `O=C(CCCCCCC(=O)Nc1ccccc1)NO` [SAHA, Vorinostat, reference compound], the “cell percentage at G2/M phase” value in the data set on MCF-7 cells [4] (1 µM) is given as 15.39%; with MCF-7 cells [4] (3 µM), 20.75%; in the data set with MCF-7 cells [4] (9 µM), 38.48%. Moreover, the half-maximal inhibitory concentration (IC50) in the data set with U266 cells was found to be 140 ± 60 nM. For the same compound, the “percentage of apoptotic cells” value with MCF-7 cells [5] (1 µM) was 11.38%; with MCF-7 cells [5] (3 µM), 12.30%; in the data set with MCF-7 cells [5] (9 µM), 19.51%.

The values are drawn from publication PMC7939570, “Discovery of potent histone deacetylase inhibitors with modified phenanthridine caps” (Journal of Enzyme Inhibition and Medicinal Chemistry, 2021).
